Eleven compounds from patent US20230295157A1, “3-(1H-IMIDAZOL-2-YL)-2,3,8,8A-TETRAHYDROINDOLIZIN-5(1H)-ONE DERIVATIVES USEFUL AS FACTOR XIA INHIBITORS” (JANSSEN PHARMACEUTICA NV, priority 2020, published 2023) can be followed below.

The target in one experiment is Factor XIa (Homo sapiens (Human), UniProt P03951). In words: Factor XIa inhibition assay (FLINT) utilizing a fluorophore-quencher pair peptide substrate. It is filed as biochemical. The settings on record: 30 min preincubation, kinetic reads over 30 min, read-out: FXIa Kin Inh IC50. An excerpt: Biological Example 1: Factor XIa Inhibition Assay Utilizing a Fluorophore-Quencher Pair Peptide Substrate
Chain of Factor XIa (P03951 388-625): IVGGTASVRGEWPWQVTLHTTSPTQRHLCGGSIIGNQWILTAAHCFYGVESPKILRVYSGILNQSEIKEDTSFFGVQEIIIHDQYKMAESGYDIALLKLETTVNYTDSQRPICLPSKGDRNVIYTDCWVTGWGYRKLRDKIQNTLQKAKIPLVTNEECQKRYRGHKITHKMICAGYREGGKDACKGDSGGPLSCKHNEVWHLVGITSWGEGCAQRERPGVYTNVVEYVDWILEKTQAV
Chain of Factor XIa (P03951 19-387 partner): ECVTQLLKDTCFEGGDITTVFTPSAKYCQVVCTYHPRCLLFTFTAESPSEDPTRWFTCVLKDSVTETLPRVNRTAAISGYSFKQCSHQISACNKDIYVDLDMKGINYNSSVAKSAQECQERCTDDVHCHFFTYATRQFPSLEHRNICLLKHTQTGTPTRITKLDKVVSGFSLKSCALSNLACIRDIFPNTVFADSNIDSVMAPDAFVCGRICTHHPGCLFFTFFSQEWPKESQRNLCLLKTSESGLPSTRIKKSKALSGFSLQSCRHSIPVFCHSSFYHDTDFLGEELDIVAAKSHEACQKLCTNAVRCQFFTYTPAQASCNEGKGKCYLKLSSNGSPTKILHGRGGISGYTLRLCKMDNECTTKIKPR
A fluorescence intensity (FLINT) based assay was used to monitor inhibition of Factor XIa. The peptide substrate, 5Fam-[…]-K5Tamra (purchased from New England Peptide) was chosen based on the FXI sequence. Conversion of zymogen […]. The custom peptide used in this assay was based on the Arg146 cleavage site of FXI. The peptide substrate was designed with a fluorophore-quencher pair, where the fluorescence is quenched until FXIa cleaves the 8-mer peptide after the Arg residue.
The Factor XIa FLINT assay was used with the following 5Fam-[…]-K5Tamra assay buffer: 50 mM Tris, pH 7.5, 100 mM NaCl, 5 mM CaCl2), 0.1 mg/mL BSA, 0.03% CHAPS. Assay buffer was prepared by mixing all ingredients fresh. 5Fam-[…]-K5Tamra peptide substrate was first prepared at 10 mM in 100% DMSO, then diluted to 3 mM in 100% DMSO. Assay buffer was then added directly to the 3 mM stock of substrate to prepare the 30 μM 2× working concentration (15 μM final concentration). The 2×Factor XIa stock solution was prepared by diluting 6.562 μM stock in 1×assay buffer for a 200 μM working stock solution (100 μM final concentration).
Test compound(s) were run in an 11-point, 3-fold serial dilution with a final top compound concentration of 100 nM. Final DMSO in assay was 2%. FXIa was preincubated with compound for 30-minutes and then substrate was added to initiate the reaction. The assay was run with kinetic (KIN) reads at 5 min intervals over 30 minutes. The time course was linear using 100 μM FXIa greater than 30 minutes. More specifically, the assay was run as follows: • 100 nL of 0.01 mM test compound was dispensed into black 384 well non-binding Greiner BioOne 784900 plate for 0.1 μM final concentration; • 5 μL of 1×assay buffer was dispensed to column 24 (low control) and 5 μL 2×Factor XIa solution was dispensed to columns 1-23 (column 23 high control); • the plate was centrifuged with a “cover” plate at 500 rpm for 1 min • the plate was pre-incubated for 30 minutes at room temperature with plate covered; • 5 μL of 2×5Fam-[…]-K5Tamra peptide substrate was dispensed into the entire plate, columns 1-24; • the plate was centrifuged with a “cover” plate at 500 rpm for 1 min; • the plate was read monitoring fluorescence intensity on the BMG PHERAStar at room temperature, using fluorescence module 485 nm/520 nm.
(§1) Percent inhibition (IC50) curves were generated per compound tested, and data was analyzed using a 4-parameter logistic fit using GeneData Screener. The relative fluorescence unit (RFU) values were normalized to percent inhibition using the following equation:
% inhibition=((HC-LC)−(compound−LC)/(HC-LC))*100
where LC—low control=mean signal of no Factor XIa or 100% inhibition of Factor XIa; HC—high control=mean signal of Factor XIa+5Fam-[…]-K5Tamra peptide substrate with DMSO only.
(§2) An 11-point dose response curve for the test compound(s) was generated using GENDATA to determine IC50 value based on the following equation:
Y=Bottom+(Top-Bottom)/(1+10^((logIC50-X)*HillSlope))
where Y is the % inhibition in the presence of X inhibitor concentration, Top=high control=mean signal of Factor XIa+5Fam-[…] K5Tamra peptide substrate with DMSO only; Bottom=low control−mean signal of no Factor XIa or 100% inhibition of Factor XIa; HillSlope—Hill coefficient; and IC50=concentration of compound with 50% inhibition in relation to top/high control.
Representative compounds of the present invention were tested according to the procedure described in Biological Example 1 and Biological Example 2 above, with results as listed in Table 3, below.

For the next experiment, the target named is human plasma kallikrein (Homo sapiens (Human), UniProt P03952). The experiment is described as follows: Kallikrein inhibition assay (FLINT) utilizing a quenched AMC peptide substrate. It is filed as biochemical. The note with it: 30 min preincubation, kinetic reads over 30 min, Z-Gly-Pro-Arg-AMC substrate 50 μM; read-out: Kallikrein Kin Inh IC50. Here is the method: Biological Example 2: Kallikrein Inhibition Assay Utilizing a Quenched AMC Peptide Substrate A fluorescence intensity (FLINT) based assay was used to monitor inhibition of human plasma kallikrein.
Chain of human plasma kallikrein (P03952 391-638): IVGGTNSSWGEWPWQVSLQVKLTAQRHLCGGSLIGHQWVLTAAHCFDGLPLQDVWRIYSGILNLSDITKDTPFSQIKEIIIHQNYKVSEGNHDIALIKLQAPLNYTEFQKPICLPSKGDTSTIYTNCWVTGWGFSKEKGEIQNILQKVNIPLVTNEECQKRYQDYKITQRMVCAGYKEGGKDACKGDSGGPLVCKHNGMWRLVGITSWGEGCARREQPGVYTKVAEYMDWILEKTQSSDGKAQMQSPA
Chain of human plasma kallikrein (P03952 20-390 partner): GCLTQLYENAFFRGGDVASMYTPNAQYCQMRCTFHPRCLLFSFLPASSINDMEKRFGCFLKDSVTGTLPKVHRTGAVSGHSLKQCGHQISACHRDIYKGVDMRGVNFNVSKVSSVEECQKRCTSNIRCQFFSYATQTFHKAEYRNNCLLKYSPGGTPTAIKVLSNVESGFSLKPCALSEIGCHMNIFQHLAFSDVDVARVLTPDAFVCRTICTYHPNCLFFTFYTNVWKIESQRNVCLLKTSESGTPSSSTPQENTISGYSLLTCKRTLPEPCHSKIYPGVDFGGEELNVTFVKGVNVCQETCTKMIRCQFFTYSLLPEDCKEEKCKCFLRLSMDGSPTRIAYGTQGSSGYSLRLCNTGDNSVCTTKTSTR
The Kallikrein FLINT assay was used with the following Z-Gly-Pro-Arg-AMC assay buffer: 50 mM Tris, pH 7.5, 100 mM NaCl, 5 mM CaCl2), 0.1 mg/mL BSA, 0.03% CHAPS. Assay buffer was prepared by mixing all ingredients fresh. 2×Z-Gly-Pro-Arg-AMC peptide substrate was prepared by diluting 10 mM stock into 1×assay buffer for a 100 μM working concentration (50 μM final concentration). The 2×kallikrein stock solution was prepared by diluting 14.76 μM stock in 1×assay buffer for a 4 nM working stock solution (2 nM final concentration).
Test compound(s) were run in an 11-point, 3-fold serial dilution with a final top compound concentration of 1 μM. Final DMSO in assay was 2%. Plasma kallikrein was pre-incubated for 30-minute with compound and then 50 μM substrate was added to initiate the reaction. The assay was run with kinetic (KIN) reads at 5 min intervals over 30 minutes. […] More specifically, the assay was run as follows: • 100 nL of 0.1 mM test compound was dispensed into black 384-well non-binding Greiner BioOne 784900 plate for 1 μM final concentration; • 5 μL of 1×assay buffer was dispensed to columns 24 (low control) and 5 μL 2×human kallikrein enzyme solution was dispensed to columns 1-23 (column 23 high control); • the plate was centrifuged with a “cover” plate at 500 rpm for 1 min • the plate was pre-incubated for 30 minutes at room temperature with plate covered; • 5 μL of 2×Z-Gly-Pro-Arg-AMC peptide substrate was dispensed into the entire plate, columns 1-24; • the plate was centrifuged with a “cover” plate at 500 rpm for 1 min; • the plate was read monitoring fluorescence intensity on the BMG PHERAStar at room temperature, using fluorescence module 340 nm/440 nm.
as §1
% inhibition=((HC-LC)−(compound-LC)\(HC-LC))*100 where LC—low control=mean signal of human kallikrein enzyme or 100% inhibition of human kallikrein enzyme; HC—high control=mean signal of Factor XIa+Z-Gly-Pro-Arg-AMC peptide substrate with DMSO only.
as §2
Y=Bottom+(Top-Bottom)/(1+10^((logIC50−X)*HillSlope)) where Y is the % inhibition in the presence of X inhibitor concentration, Top=high control=mean signal of human kallikrein enzyme+Z-Gly-Pro-Arg-AMC peptide substrate with DMSO only; Bottom=low control−mean signal of no human kallikrein enzyme or 100% inhibition of human kallikrein enzyme; HillSlope—Hill coefficient; and IC50=concentration of compound with 50% inhibition in relation to top/high control.

Where [1] appears, read: 5Fam-[…]-K5Tamra substrate 15 μM.
Setting [2] is: 5Fam-KLTRAETV-K5Tamra substrate 15 μM.

Structures are written as SMILES. Where two headings read alike, the source gives them in different places.

For the compound `O=C1C=C(c2c(-n3cnnn3)ccc(Cl)c2F)C[C@H]2CC[C@H](c3ncc(-c4ccnc(COCP(=O)(O)O)c4F)[nH]3)N12` (relative stereo) [Example 37, (((4-(24(3R*,8aR)-7-(3-chloro-2-fluoro-6-(1H-tetrazol-1-yl)phenyl)-5-oxo-1,2,3,5,8,8a-hexahydroindolizin-3-yl)-1H-imidazol-5-yl)-3-fluoropyridin-2-yl)methoxy)methyl)phosphonic acid], the IC50 on Factor XIa (setting [1]) was found to be 1.3 nM; at human plasma kallikrein, 55.8 nM.

As to `C[C@@H](O)c1nccc(-c2[nH]c([C@@H]3CC[C@@H]4CC(c5cc(Cl)ccc5-n5cnnn5)=CC(=O)N43)nc2F)c1F` (relative stereo) [Example 45, (3S,8aR)-7-(5-chloro-2-(1H-tetrazol-1-yl)phenyl)-3-(4-fluoro-5-(3-fluoro-2-((R*)-1-hydroxyethyl)pyridin-4-yl)-1H-imidazol-2-yl)-2,3,8,8a-tetrahydroindolizin-5(1H)-one], the results for the half-inhibitory concentration (IC50) on Factor XIa (setting [1]) and on human plasma kallikrein were 4.4 nM and 41.3 nM, respectively.

Regarding `C[C@H](O)c1nccc(-c2[nH]c([C@@H]3CC[C@@H]4CC(c5cc(Cl)ccc5-n5cnnn5)=CC(=O)N43)nc2F)c1F` (relative stereo) [Example 46, (3S,8aR)-7-(5-chloro-2-(1H-tetrazol-1-yl)phenyl)-3-(4-fluoro-5-(3-fluoro-2-((S*)-1-hydroxyethyl)pyridin-4-yl)-1H-imidazol-2-yl)-2,3,8,8a-tetrahydroindolizin-5(1H)-one], the IC50 was 5.4 nM on Factor XIa (setting [1]) and 35.5 nM on human plasma kallikrein.

In the case of `[2H][C@]12CC[C@@H](c3ncc(-c4ccnc(CO)c4F)[nH]3)N1C(=O)C=C(c1c(-n3cnnn3)ccc(Cl)c1F)C2` (relative stereo) [Example 47, (3S,8aR*)-7-(3-Chloro-2-fluoro-6-(1H-tetrazol-1-yl)phenyl)-3-(5-(3-fluoro-2-(hydroxymethyl)pyridin-4-yl)-1H-imidazol-2-yl)-2,3,8,8a-tetrahydroindolizin-5(1H)-one-8a-d], the figures for the IC50 on Factor XIa (setting [1]) and at human plasma kallikrein were 5.7 nM and 42.6 nM, respectively.

As to `[2H][C@@]12CC[C@@H](c3ncc(-c4ccnc(CO)c4F)[nH]3)N1C(=O)C=C(c1c(-n3cnnn3)ccc(Cl)c1F)C2` (relative stereo) [Example 48, (3S*,8aS)-7-(3-chloro-2-fluoro-6-(1H-tetrazol-1-yl)phenyl)-3-(5-(3-fluoro-2-(hydroxymethyl)pyridin-4-yl)-1H-imidazol-2-yl)-2,3,8,8a-tetrahydroindolizin-5(1H)-one-8a-d], the IC50 on Factor XIa (setting [1]) was 22.5 nM; at human plasma kallikrein, 72.4 nM.

In the case of `O=C1C=C(c2cc(Cl)ccc2-n2cc(C(F)(F)F)nn2)C[C@H]2CC[C@@H](c3ncc(-c4ccc5[nH]c(=O)cnc5c4F)[nH]3)N12` (relative stereo) [Example 59, 6-(2-((3S*,8aR*)-7-(5-chloro-2-(4-(trifluoromethyl)-1H-1,2,3-triazol-1-yl)phenyl)-5-oxo-1,2,3,5,8,8a-hexahydroindolizin-3-yl)-1H-imidazol-5-yl)-5-fluoroquinoxalin-2(1H)-one], the half-inhibitory concentration (IC50) came to 3.1 nM at Factor XIa (setting [1]) and 12 nM on human plasma kallikrein.

Turning to `O=C1C=C(c2cc(Cl)ccc2-n2cc(C(F)(F)F)nn2)C[C@H]2CC[C@@H](c3ncc(-c4ccnc(CO)c4F)[nH]3)N12` (relative stereo) [Example 64, (3S,8aR*)-7-(5-chloro-2-(4-(trifluoromethyl)-1H-1,2,3-triazol-1-yl)phenyl)-3-(5-(3-fluoro-2-(hydroxymethyl)pyridin-4-yl)-1H-imidazol-2-yl)-2 3,8,8a-tetrahydroindolizin-1H-one], the IC50 was determined as 11.5 nM at Factor XIa (setting [1]) and 156 nM on human plasma kallikrein.

On to `O=C1C=C(c2c(-n3cnnn3)ccc(Cl)c2F)CC2CC[C@@H](c3nc(F)c(-c4ccnc(N[C@H]5CCOC5)c4F)[nH]3)N12` (relative stereo) [Example 76, (3S*)-7-(3-chloro-2-fluoro-6-(1H-tetrazol-1-yl)phenyl)-3-(4-fluoro-5-(3-fluoro-2-(((S)-tetrahydrofuran-3-yl)amino)pyridin-4-yl)-1H-imidazol-2-yl)-2,3,8,8a-tetrahydroindolizin-5(1H)-one], for which the IC50 on Factor XIa (setting [1]) came to 0.7 nM; on human plasma kallikrein, 1.9 nM.

`COc1ccc(NC(=O)C2CC2)c(-c2c[nH]c([C@@H]3CC[C@@H]4CC(c5c(-n6cnnn6)ccc(Cl)c5F)=CC(=O)N43)n2)c1` [Example 257, N-[2-[2-[(3S,8aR)-7-[3-Chloro-2-fluoro-6-(tetrazol-1-yl)phenyl]-5-oxo-2,3,8,8a-tetrahydro-1H-indolizin-3-yl]-1H-imidazol-4-yl]-4-methoxy-phenyl]cyclopropanecarboxamide]: the 50% inhibitory concentration (IC50) on Factor XIa (setting [2]) was found to be 0.5 nM.

With `COc1ccc(NC(=O)C2CC2)c(-c2c[nH]c([C@@H]3CC[C@H]4CC(c5c(-n6cnnn6)ccc(Cl)c5F)=CC(=O)N43)n2)c1` [Example 271, N-(2-(2-((3S,8aS)-7-(3-Chloro-2-fluoro-6-(1H-tetrazol-1-yl)phenyl)-5-oxo-1,2,3,5,8,8a-hexahydroindolizin-3-yl)-1H-imidazol-4-yl)-4-methoxyphenyl)cyclopropanecarboxamide], the IC50 at Factor XIa (setting [2]) amounted to 0.8 nM.

As to `COc1ccc(NC(=O)C2CC2)c(-c2c[nH]c([C@@H]3CCC4CC(c5c(-n6cnnn6)ccc(Cl)c5F)=CC(=O)N43)n2)c1` (stereo partly drawn) [Example 279, N-(2-(2-((3S)-7-(3-Chloro-2-fluoro-6-(1H-tetrazol-1-yl)phenyl)-5-oxo-1,2,3,5,8,8a-hexahydroindolizin-3-yl)-1H-imidazol-4-yl)-4-methoxyphenyl)cyclopropanecarboxamide], the half-maximal inhibitory concentration (IC50) on Factor XIa (setting [2]) stood at 0.9 nM.
